Like-named read-outs stand apart in the source and are kept apart here. One block for each compound: values may come before it.
Assays:
MDAMB231 [1] = experiment: MTT antiproliferative assay, MDAMB231; assay type: cell-based; settings: Homo sapiens, MDA-MB-231; MDAMB231 breast cell line, 48 hrs drug incubation
Procedure: (§1) MTT assay is a simple and sensitive assay where, metabolic reducing activity of the cells is measured. The increase of this activity in time is taken as a parameter of cell growth. If treatment with a drug impairs this increase, the action may be a consequence of growth inhibition, cell killing or both. The compounds of Formula V to XIV of the present invention, standard cytotoxic drug (e.g. Cisplatin) were tested at different concentrations (1, 0.1, 0.01, 0.001 mM) using breast and prostate cancer cell lines. All cell lines were cultured in a 37° C. incubator with a 5% CO2 environment. Compounds were dissolved in DMSO with a concentration of 0.1M (stock solution). Cells were seeded into 96-well plates at suitable plating efficiency.
(§2) Following Plating Efficiencies were Standardized for MTT Assay:
(§3) The MTT procedure followed was as follows. Briefly, the cells were plated in 96 well plate as per predetermined plating efficiency (Table 1) The plates were then incubated for 24 hrs in 5% CO2 atmosphere at 37° C. Appropriate concentrations of the drugs were then added to the plate and further incubation was carried out for 48 hrs (in 5% CO2 atmosphere at 37° C.). The assay plate was then centrifuged twice at 3000 rpm for 3 mins and supernatant was then discarded. 100 ul of MTT solution (0.5 mg/ml) was then added to each well of the plate and it was further incubated for 4 hrs (in 5% CO2 atmosphere at 37° C.) Following 4 hr incubation, the plate was then centrifuged twice, and supernatant was aspirated off very carefully. 200 ul of DMSO was then added to each well to solubilize. MTT crystals and mixed well by shaking the plate. XY graph of log Percent viability was then plotted against log drug concentration. […] (Drug concentration inhibiting the 50% of cell population) was then calculated by regression analysis.

PC3 [2] = experiment: MTT antiproliferative assay, PC3; assay type: cell-based; settings: Homo sapiens, PC-3; PC3 prostate cell line, 48 hrs drug incubation
Procedure: as §1, §2, §3

MDAMB231 [3] = experiment: Soft Agar colony-formation Assay, MDAMB231; assay type: cell-based; settings: Homo sapiens, MDA-MB-231, 168 h; MDAMB231 breast cell line, 1 week
Procedure: (§4) The Soft Agar Colony-formation Assay is an anchorage-independent growth assay in soft agar, which is one of the most stringent assays for detecting malignant transformation of cells. For this assay, malignant cells are cultured with appropriate controls in soft agar medium for 1-2 weeks. Following this incubation period, formed colonies can either be analyzed morphologically using cell stain and quantifying the number of colonies formed.
(§5) Briefly, for Soft Agar Assay a mixture of 50 ul of 2× medium (taken appropriately as per cell line) and 50 ul of 1.2% Bacto Agar were plated on to each well of 96 well micro titer assay plate. 10 ul of cells (Of specific plating efficiency pre-standardized for respective cell line) were mixed with 20 ul of 2× medium and 30 ul of 0.8% of Bacto Agar and 1.6 ul of drug (of appropriate concentration) in a vial and transferred to the solidified pre-layers of the assay plates. The cells were then allowed to grow and form colonies at 37° C. and 5% CO2 for 1 week. An intermittent feeding with 50 ul of appropriate 2× medium was performed after 3 days of experimental set up. 16 ul of Alamar Blue (1.5 mg/ml) was then added to all the wells to quantify the developed colonies. The plates were incubated for 24 hrs at 37° C. Absorbance was then measured at 630 nm. XY graph of log Percent viability was then plotted against log drug concentration. IC50 (Drug concentration inhibiting the 50% of cell population) was then calculated by regression analysis.
(§6) Following Plating Efficiencies Were Standardized for Soft Agar Assay: […]

PC3 [4] = experiment: Soft Agar colony-formation Assay, PC3; assay type: cell-based; settings: Homo sapiens, PC-3, 168 h; PC3 prostate cell line, 1 week
Procedure: as §4, §5, §6

spheres of MDAMB231 = experiment: In vitro sphere-forming assay, MDAMB231 in Mammosphere media; assay type: cell-based; settings: 2000 cells/well, n = 6 ± S.D
From the text: (§7) Sphere assay measures the ability of Cancer Stein Cells to form spheres in specially designed serum-free medium. We have used this assay to measure the killing efficiency of the test compounds as compared to the standard chemotherapeutic drug, Cisplatin.
(§8) Materials and Reagents:50× B27 Supplement (Life Technologies, Invitrogen, Catalog No.: 17502-044), Fibroblast Growth Factor (FGF) (Sigma-Aldrich, Catlog No.: F029125), Epidermal Growth Factor (EGF) (Sigma-Aldrich, Catlog No.: E9644), Insulin (Sigma, Catlog No.: 19278), Dulbecco's Modified Eagle Medium/F12 (HiMedia Catlog No.: AL139-6), Dulbecco's Phosphate Buffered Saline (HiMedia Catlog No.: TL1006), Trypan Blue (TC193), Prostate Epithelial Media (LONZA, Catlog No.: CC-3166) MEGM (LONZA, Catlog No.: CC-3051), Heparin (Sigma, Catlog No.: H3393), Penstrep (HiMedia, Catlog No.: A002)
Mammosphere Media Preparation (For 100 mL): 1 g methyl cellulose autoclaved with magnetic stirrer Plain media (MEBM), 100 mL added and dissolved under magnetic stirring. After complete dissolution, add: FGF-80 μL, EGF-40 μL, Penstrep-1 mL, Heparin-400 μL.
(§9) Procedure: —The cells were trypsinised and made into single-cell suspension by passing through cell strainers ([…], respectively), The cells were diluted at the concentration of 2000 cells/100 μL and suspended in either Mammosphere (for breast cell lines) or Prostosphere (for prostate cell lines). 100 μL of this suspension was added into each well of 96-well suspension plates and incubated at 37° C., 5% CO2 for 24 hrs. Appropriate concentrations of the drugs (2 μL) were added into respective wells with 100 μL of stem cell culture medium. Plates were incubated at 37° C., 5% CO2 for 72 hrs. After incubation 2.5 μL of the respective drug concentration and 50 μL of stem cell culture medium were added into each well and the plates were further incubated at 37° C., 5% CO2 for 72 hrs. 3 μL of the respective drug concentration was added with 50 μL of stem cell culture medium again after incubation and plates were incubated again for 72 hrs at 37° C., 5% CO2. Number of primary spheres formed for each concentration was counted. A comparative graph of number of spheres formed was plotted against the concentration and the growth curve was compared with the positive control.

spheres of PC3 = experiment: In vitro sphere-forming assay, PC3 in Prostosphere media; assay type: cell-based; settings: 2000 cells/well, n = 6 ± S.D
From the text: as §7, §8
Prostosphere Media Preparation (For 100 mL):1 g methyl cellulose autoclaved with magnetic stirrer, Plain media (Prostate Epithelial Basal Medium), 100 mL added and dissolved, under magnetic stirring. After complete dissolution, add: Insulin-40 μL, B27-2 mL, EGF-80 μL, Penstrep-1 ml.
as §9

normal lymphocytes [5] = experiment: Normal cell assay (MTT) on lymphocytes from a healthy donor
Procedure: (§10) In order to test the activity of cytotoxic drugs towards normal cells, we performed MTT
(§11) Assay for these cytotoxic drugs using lymphocytes obtained from a healthy donor.
(§12) Briefly, diluted defibrinated fresh blood was overlaid gradually on HiSeP LSM1077 and centrifuged at low speed for 30 mins. The lymphocyte layer (the buffy coat) (Fig) was carefully removed in a new collection tube. The buffy coat was given another wash, by the diluent buffer, to reduce the platelet contamination. The supernatant was discarded, and the pellet was resuspended in diluent buffer. The viability was checked by Haemocytometer. Cells with Viability and Purity of 95% and more were considered for the assay. MTT assay was performed with these cells as described above with plating efficiency of 0.7 million/ml.

MCF7 = experiment: MTT antiproliferative assay, MCF7; assay type: cell-based; settings: Homo sapiens, MCF7; MCF-7 breast cell line, 48 hrs drug incubation
Procedure: as §1, §2, §3

DU145 = experiment: MTT antiproliferative assay, DU145; assay type: cell-based; settings: Homo sapiens, DU-145; DU145 prostate cell line, 48 hrs drug incubation
Procedure: as §1, §2, §3

normal lymphocytes [6] = system: normal lymphocytes
Procedure: as §10, §11, §12

SMILES: CCOC(=O)c1c(C(=O)OCC)c(-c2ccc3c(c2)OCO3)c2cc(OC)c(OC)cc2c1OC1OC[C@@H](OC)[C@H](OC)[C@H]1O (stereo partly drawn) [Formula VI, diethyl 1-(benzo[d][1,3]dioxol-5-yl)-4-((3R,4R,5R)-3-hydroxy-4,5-dimethoxy-tetrahydro-2H-pyran-2-yloxy)-6,7-dimethoxynaphthalene-2,3-dicarboxylate]
IC50 (MDAMB231 [1]): 10.1 µM | IC50 (PC3 [2]): 5.65 µM | IC50 (MDAMB231 [3]): 14.2 µM | IC50 (PC3 [4]): 3.25 µM | 3D sphere count of MDAMB231 (spheres of MDAMB231; drug conc 0.025 uM): 44(±3) | 3D sphere count of MDAMB231 (spheres of MDAMB231; drug conc 0.25 uM): 36(±2) | 3D sphere count of MDAMB231 (spheres of MDAMB231; drug conc 2.5 uM): 24(±3) | 3D sphere count of MDAMB231 (spheres of MDAMB231; drug conc 25 uM): 7(±2) | 3D sphere count of MDAMB231 (spheres of MDAMB231; drug conc 250 uM): 0(±0) | 3D sphere count of PC3 (spheres of PC3; drug conc 0.025 uM): 40(±3) | 3D sphere count of PC3 (spheres of PC3; drug conc 0.25 uM): 28(±2) | 3D sphere count of PC3 (spheres of PC3; drug conc 2.5 uM): 30(±2) | 3D sphere count of PC3 (spheres of PC3; drug conc 25 uM): 21(±2) | 3D sphere count of PC3 (spheres of PC3; drug conc 250 uM): 0(±0) | activity on normal lymphocytes (normal lymphocytes [5]): does not show activity

SMILES: CO[C@H]1[C@H](OC)COC(Oc2ccc(-c3ccc4c(c3)OCO4)c3ccccc23)[C@@H]1O (stereo partly drawn) [Formula V, (3R,4R,5R)-2-(4-(benzo[d][1,3]dioxol-5-yl)naphthalen-1-yloxy)-4,5-dimethoxy-tetrahydro-2H-pyran-3-ol]
IC50 (MDAMB231 [1]): 4.61 µM | IC50 (PC3 [2]): 6.19 µM | IC50 (MDAMB231 [3]): 3.45 µM | IC50 (PC3 [4]): 10.6 µM | 3D sphere count of MDAMB231 (spheres of MDAMB231; drug conc 0.025 uM): 40(±3) | 3D sphere count of MDAMB231 (spheres of MDAMB231; drug conc 0.25 uM): 24(±3) | 3D sphere count of MDAMB231 (spheres of MDAMB231; drug conc 2.5 uM): 12(±1) | 3D sphere count of MDAMB231 (spheres of MDAMB231; drug conc 25 uM): 7(±2) | 3D sphere count of MDAMB231 (spheres of MDAMB231; drug conc 250 uM): 0(±0) | 3D sphere count of PC3 (spheres of PC3; drug conc 0.025 uM): 50(±5) | 3D sphere count of PC3 (spheres of PC3; drug conc 0.25 uM): 40(±5) | 3D sphere count of PC3 (spheres of PC3; drug conc 2.5 uM): 36(±3) | 3D sphere count of PC3 (spheres of PC3; drug conc 25 uM): 21(±4) | 3D sphere count of PC3 (spheres of PC3; drug conc 250 uM): 0(±0) | activity on normal lymphocytes (normal lymphocytes [6]): does not show activity

Now from value to compound, other results behind:

IC50 (MCF7): 3.46 µM | IC50 (MDAMB231 [1]): 3.16 µM | IC50 (PC3 [2]): 2.6 µM | IC50 (DU145): 3.28 µM | IC50 (MDAMB231 [3]): 2.07 µM | IC50 (PC3 [4]): 2.38 µM | activity on normal lymphocytes (normal lymphocytes [5]): does not show activity
SMILES: Cn1cccc1C(=O)Oc1ccc(-c2ccc3c(c2)OCO3)c2ccccc12 [Formula X, 1-(benzo[d][1,3]dioxol-5-yl)naphthalen-4-yl 1-methyl-1H-pyrrole-2-carboxylate]
3D sphere count of MDAMB231 (spheres of MDAMB231; drug conc 0.025 uM): 39(±4) | 3D sphere count of MDAMB231 (spheres of MDAMB231; drug conc 0.25 uM): 37(±4) | 3D sphere count of MDAMB231 (spheres of MDAMB231; drug conc 2.5 uM): 28(±3) | 3D sphere count of MDAMB231 (spheres of MDAMB231; drug conc 25 uM): 24(±3) | 3D sphere count of MDAMB231 (spheres of MDAMB231; drug conc 250 uM): 0(±0)

IC50 (MCF7): 2.78 µM | IC50 (MDAMB231 [1]): 2.04 µM | IC50 (PC3 [2]): 6.32 µM | IC50 (DU145): 3.57 µM | IC50 (MDAMB231 [3]): 7.91 µM | IC50 (PC3 [4]): 0.36 µM | activity on normal lymphocytes (normal lymphocytes [5]): does not show activity
SMILES: COc1cc2c(OC(=O)c3cccn3C)c3c(c(-c4ccc5c(c4)OCO5)c2cc1OC)C(=O)OC3 [Formula VII, 9-(benzo[d][1,3]dioxol-5-yl)-6,7-dimethoxy-1-oxo-1,3-dihydronaphtho[2,3-c]furan-4-yl 1-methyl-1H-pyrrole-2-carboxylate]
3D sphere count of MDAMB231 (spheres of MDAMB231; drug conc 0.025 uM): 47(±4) | 3D sphere count of MDAMB231 (spheres of MDAMB231; drug conc 0.25 uM): 46(±7) | 3D sphere count of MDAMB231 (spheres of MDAMB231; drug conc 2.5 uM): 40(±7) | 3D sphere count of MDAMB231 (spheres of MDAMB231; drug conc 25 uM): 40(±3) | 3D sphere count of MDAMB231 (spheres of MDAMB231; drug conc 250 uM): 0(±0) | 3D sphere count of PC3 (spheres of PC3; drug conc 0.025 uM): 64(±8) | 3D sphere count of PC3 (spheres of PC3; drug conc 0.25 uM): 31(±5) | 3D sphere count of PC3 (spheres of PC3; drug conc 2.5 uM): 23(±3) | 3D sphere count of PC3 (spheres of PC3; drug conc 25 uM): 9(±2) | 3D sphere count of PC3 (spheres of PC3; drug conc 250 uM): 0(±0)

IC50 (MCF7): 1.05 µM | IC50 (MDAMB231 [1]): 3.14 µM | IC50 (PC3 [2]): 3.91 µM | IC50 (DU145): 4.28 µM | IC50 (MDAMB231 [3]): 1.32 µM | IC50 (PC3 [4]): 1.96 µM | activity on normal lymphocytes (normal lymphocytes [5]): does not show activity
SMILES: COc1cc2c(OC(=O)C(c3ccccc3)C3CCCC3)c3c(c(-c4ccc5c(c4)OCO5)c2cc1OC)C(=O)OC3 (stereo not shown) [Formula VIII, 9-(benzo[d][1,3]dioxol-5-yl)-6,7-dimethoxy-1-oxo-1,3-dihydronaphtho[2,3-c]furan-4-yl 2-cyclopentyl-2-phenylacetate]
3D sphere count of MDAMB231 (spheres of MDAMB231; drug conc 0.025 uM): 36(±3) | 3D sphere count of MDAMB231 (spheres of MDAMB231; drug conc 0.25 uM): 29(±4) | 3D sphere count of MDAMB231 (spheres of MDAMB231; drug conc 2.5 uM): 13(±2) | 3D sphere count of MDAMB231 (spheres of MDAMB231; drug conc 25 uM): 8(±2) | 3D sphere count of MDAMB231 (spheres of MDAMB231; drug conc 250 uM): 0(±0) | 3D sphere count of PC3 (spheres of PC3; drug conc 0.025 uM): 29(±3) | 3D sphere count of PC3 (spheres of PC3; drug conc 0.25 uM): 24(±3) | 3D sphere count of PC3 (spheres of PC3; drug conc 2.5 uM): 13(±3) | 3D sphere count of PC3 (spheres of PC3; drug conc 25 uM): 8(±2) | 3D sphere count of PC3 (spheres of PC3; drug conc 250 uM): 0(±0)

— US11680078B2, “Anticancer compounds” (GODAVARI BIOREFINERIES LIMITED, priority 2017, dated 2023)
